Results as given in publication PMC11189555, “Aryl amino acetamides prevent Plasmodium falciparum ring development via targeting the lipid-transfer protein PfSTART1” (Nature Communications, 2024).
Where “and” joins values, the source holds several entries; their conditions need not be identical. Equal values may be shown once.

Assays:
[1] = target: T1, recombinant PfSTART1(WT) (I149-V394) (Plasmodium falciparum, UniProt Q8I298); assay: Isothermal titration calorimetry; type: binding; conditions: for Differential Power DP_Y / ΔH NDH_Y: PfSTART(WT), ITC replicate data
T1 construct: START domain alone (I149-V394 from PF3D7_0104200); 8xHis tag (N); TEV protease cleavage site (N); made in house; host or cells: Sf21 insect cells (baculovirus)
T1 sequence (Q8I298 entry or part of it): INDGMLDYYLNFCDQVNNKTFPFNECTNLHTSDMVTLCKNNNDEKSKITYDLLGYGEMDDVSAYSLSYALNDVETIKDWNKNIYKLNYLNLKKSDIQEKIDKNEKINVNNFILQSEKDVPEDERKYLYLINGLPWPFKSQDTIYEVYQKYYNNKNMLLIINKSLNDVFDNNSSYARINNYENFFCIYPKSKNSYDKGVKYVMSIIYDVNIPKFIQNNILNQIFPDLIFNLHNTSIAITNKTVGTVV
Text: Codon optimised (Spodoptera frugiperda, Sf) START domain alone (I149-V394 from PF3D7_0104200) was synthesised by Integrated DNA Technologies and cloned into a modified baculovirus transfer vector (pAcGP67-A) with a N-terminal GP67-signal sequence, 8xHis tag, and TEV protease cleavage site. Recombinant baculovirus was generated via the flashBACTM Baculovirus Expression System using Sf21 cells (Life Technologies), amplified to reach a third passage viral stock, and 1.5% used to infect Sf21 for protein expression. After incubation for three days at 28 °C, media containing secreted protein was harvested by centrifugation and supplemented with 50 mM Tris pH 7.5, 20 mM MgCl2, 100 mM NaCl, and 10-20 mM imidazole. The supplemented protein sample was purified by nickel affinity chromatography (HisTrap Excel 5 mL, Cytiva), and eluted with 20 mM Tris pH 7.5, 500 mM NaCl, 300-500 mM imidazole. Eluted fractions were further purified using size-exclusion chromatography (Superdex S75 16/600 or Superdex 10/300, Cytiva) with the column pre-equilibrated with 20 mM HEPES pH 7.5, 150 mM NaCl, and peak-containing fractions concentrated and stored at -80 °C until required. If required, prior to ITC, a second size-exclusion chromatography step was performed to remove soluble aggregates.
ITC experiments were performed on a MicroCal PEAQ-ITC calorimeter at 25 °C, with a stirring speed of 750 rpm and a reference power of 5 μcal/sec. 500 μM M-833 series inhibitor solutions were diluted to 10 μM in 50 mM NaPO4^-3 (pH 7.4), 150 mM NaCl with a final DMSO concentration of 2% (v/v) (cell sample). PfSTART1 protein was dialysed extensively against 50 mM NaPO4^-3 (pH 7.4), 150 mM NaCl, before diluting to 90 μM in the same buffer with 2% (v/v) DMSO (syringe sample). The first injection was 0.4 μL over a 0.8 s duration, and the remaining 19 injections were 2 μL of 4 s duration, with 150 s injection spacing. Data were collected and analysed using the PEAQ-ITC software (MicroCal) and fit by a single site binding model. A fitted offset (constant control heat) was also applied to the integrated heat.

[2] = system: 3D7 P. falciparum parasites; assay: Growth inhibition assay (72 h, LDH activity); type: cell-based, Plasmodium falciparum; conditions: for NORMALISED (growth inhibition, LDH absorbance vs DMSO and uRBC): 3D7, 0 mM GlcN; for NORMALISED (growth inhibition, LDH absorbance) / (av-uRBC) / (DMSO-uRBC) x100: 3D7
Procedure: Parasite growth assays with inhibitory compounds were performed as per[11] and are fully described in the Supplementary Information. […]
Growth inhibition assays. Synchronised ring-stage parasites (0.3-0.6% parasitemia, 2% haematocrit) were grown for 72 h in a serial-dilution of the compound under […]
and compound 4. Note that M-833 was first purchased from MolPort (MolPort -002-267-916) then made in-house at WEHI: the differences observed in EC50s across experiments are attributed to the different batches of M -833. For some experiments, 0, 0.25 or 2.5 mM of glucosamine (GlcN) was also added. Experiments were set up in technical duplicates or triplicates. Following a freeze -thaw cycle, lactate dehydrogenase (LDH) activity was assessed as an indicator of parasite growt h 5. 30 μL of parasite culture was incubated for 30 min in the dark with 75 μL Malstat mixture (0.1 M Tris pH 9.0, 20 g/L lactic acid, pH 7.5, 0.2% Triton-X100, 0.5 g/L acetylpyridine adenine dinucleotide (APAD, Sigma), 200 μg/mL nitroblue tetrazolium (NBT; Sigma), 1 μg/mL phenozine ethosulfate (PES; Sigma)). Absorbance was then measured at 650 nm, transformed using the formula below, plotted against the logarithm of the concentrations, and a non-linear regression (log(inhibitor) vs. response, variable slope) was calculated using GraphPad Prism to assess the half-inhibitory […]
Growth inhibition % = (1 − average(sample)− average(uRBC)) ∗ 100 […]
The DMSO samples were also used to assess growth of parasite in the presence of 0.25 and 2.5 mM GlcN (normalised by DMSO in 0 mM GlcN). […]

CC(C)(Nc1ccc(Cl)c(S(=O)(=O)N2CCOCC2)c1)C(=O)Nc1ccc(F)c(Cl)c1 [W-991]
Kd ([1]; ITC, 25 °C, 90 µM PfSTART1 titrated into 10 µM compound, n = 2, ± SD): 10 ± 7 nM
ΔH ([1]; ITC, 25 °C, n = 2, ± SD): -12.8 ± 0.1 kcal/mol
−TΔS ([1]; ITC, 25 °C, n = 2, ± SD): 1.8 ± 0.6 kcal/mol
Differential Power DP_Y ([1]; DP_X 0.083333): -0.000146
Differential Power DP_Y ([1]; DP_X 0.1): 9.8e-5
ΔH NDH_Y ([1]; NDH_X 0.104703): -13.8427
ΔH NDH_Y ([1]; NDH_X 0.192876): -12.6755
NORMALISED (growth inhibition, LDH absorbance vs DMSO and uRBC) ([2]; W991 at 0.137174 nM): 9.0099 and 4.6722
NORMALISED (growth inhibition, LDH absorbance vs DMSO and uRBC) ([2]; W991 at 0.411523 nM): 30.495 and 19.7030
NORMALISED (growth inhibition, LDH absorbance vs DMSO and uRBC) ([2]; W991 at 1.23457 nM): 67.3267 and 60.8717
NORMALISED (growth inhibition, LDH absorbance vs DMSO and uRBC) ([2]; W991 at 3.7037 nM): 88.9109 and 93.8187
NORMALISED (growth inhibition, LDH absorbance vs DMSO and uRBC) ([2]; W991 at 11.1111 nM): 90.3465 and 96.7162
NORMALISED (growth inhibition, LDH absorbance vs DMSO and uRBC) ([2]; W991 at 33.3333 nM): 89.8515 and 96.9697
NORMALISED (growth inhibition, LDH absorbance vs DMSO and uRBC) ([2]; W991 at 100 nM): 92.3267 and 97.2232
NORMALISED (growth inhibition, LDH absorbance) ([2]; 0.25 mM GlcN, dilution point 1 of 10, starting concentration 100 nM): 97.1868
NORMALISED (growth inhibition, LDH absorbance) ([2]; 0.25 mM GlcN, dilution point 2 of 10 from starting concentration 100 nM): 96.6100
NORMALISED (growth inhibition, LDH absorbance) ([2]; 0.25 mM GlcN, dilution point 3 of 10 from starting concentration 100 nM): 96.4481
NORMALISED (growth inhibition, LDH absorbance) ([2]; 0.25 mM GlcN, dilution point 4 of 10 from starting concentration 100 nM): 92.3801
NORMALISED (growth inhibition, LDH absorbance) ([2]; 0.25 mM GlcN, dilution point 5 of 10 from starting concentration 100 nM): 74.4235 and 44.8087
NORMALISED (growth inhibition, LDH absorbance) ([2]; 2.5 mM GlcN, dilution point 1 of 10, starting concentration 100 nM): 96.9212
NORMALISED (growth inhibition, LDH absorbance) ([2]; 2.5 mM GlcN, dilution point 2 of 10 from starting concentration 100 nM): 96.2021
NORMALISED (growth inhibition, LDH absorbance) ([2]; 2.5 mM GlcN, dilution point 3 of 10 from starting concentration 100 nM): 95.7667
NORMALISED (growth inhibition, LDH absorbance) ([2]; 2.5 mM GlcN, dilution point 4 of 10 from starting concentration 100 nM): 92.5258
NORMALISED (growth inhibition, LDH absorbance) ([2]; 2.5 mM GlcN, dilution point 5 of 10 from starting concentration 100 nM): 58.1932
NORMALISED (growth inhibition, LDH absorbance) ([2]; 2.5 mM GlcN, dilution point 6 of 10 from starting concentration 100 nM): 27.2129
NORMALISED (growth inhibition, LDH absorbance) ([2]; 2.5 mM GlcN, dilution point 8 of 10 from starting concentration 100 nM): 5.32 and 8.1730
(av-uRBC) / (DMSO-uRBC) x100 ([2]; conc. 0.0762079 nM, Biological replicate 1 (2021-10-25)): 91.3585
(av-uRBC) / (DMSO-uRBC) x100 ([2]; conc. 0.0762079 nM, Biological replicate 2 (2021-11-03)): 90.9909
(av-uRBC) / (DMSO-uRBC) x100 ([2]; conc. 0.0762079 nM, Biological replicate 3 (2021-11-11)): 91.0985
(av-uRBC) / (DMSO-uRBC) x100 ([2]; conc. 0.228624 nM, Biological replicate 1 (2021-10-25)): 79.3619
(av-uRBC) / (DMSO-uRBC) x100 ([2]; conc. 0.228624 nM, Biological replicate 2 (2021-11-03)): 81.2617
(av-uRBC) / (DMSO-uRBC) x100 ([2]; conc. 0.228624 nM, Biological replicate 3 (2021-11-11)): 73.154
(av-uRBC) / (DMSO-uRBC) x100 ([2]; conc. 0.685871 nM, Biological replicate 1 (2021-10-25)): 42.85
(av-uRBC) / (DMSO-uRBC) x100 ([2]; conc. 0.685871 nM, Biological replicate 2 (2021-11-03)): 72.8867
(av-uRBC) / (DMSO-uRBC) x100 ([2]; conc. 0.685871 nM, Biological replicate 3 (2021-11-11)): 42.2112
